How the values were obtained:
[1] = tested on: HSV-2; assay: HSV-2 plaque reduction assay on Vero cells; format: cell-based, Herpes 2 virus (HSV-2)
[2] = tested on: HCMV; assay: HCMV inhibition assay on HELF cells; format: cell-based, HCMV strain Towne; details: Human betaherpesvirus 5, HELF
Experimental: (§1) HELF cells were pre-plated in a 96-well plate. The following day concentrations of compounds ranging from 50 μM to 0.0001 μM in DMSO were mixed with HCMV (MOI 0.005 pfu/cell) and incubated for 1 hour at 37° C. The mixtures were subsequently added to the cells, which were then incubated at 37° C. for 3 h; monolayers were then washed and overlaid with 1.2% methylcellulose medium supplemented with 3% FCS and 1 mM sodium pyruvate. After five days incubation, cells were observed under an inverted Zeiss LSM510 fluorescence microscope (Zeiss, Oberkochen, Germany) and the EC50 were calculated by comparing GFP positive cells in treated and untreated wells. The effective concentration producing 50% reduction in plaque formation (EC50) was determined using Prism software. The selectivity index (SI) was calculated by dividing the CC50 by the EC50 value.

[3] = in vitro; details: African green monkey
[4] = tested on: HSV-2; assay: During infection assay, HSV-2 on Vero cells without preincubation; format: cell-based, Herpes 2 virus (HSV-2); details: Human alphaherpesvirus 2; HSV-2, Vero cells, no preincubation of compound and virus; read-out: EC50 in during infection (DI) assay
Experimental: During infection cells were subjected to the same experiment described above for the evaluation of HSV inhibition without the preincubation between compounds and virus.

[5] = tested on: HSV2; assay: Virucidal assay; format: cell-based, Herpes 2 virus (HSV-2); details: 10 μM, 2 h at 37° C., titrated at dilutions where compound no more active
Experimental: Approximately 10^5 PFU of HSV2 plus 10 μM of 15b in DMSO were added to MEM and mixed in a total volume of 100 μl. The virus-compound mixtures were incubated for 2 h at 37° C. then diluted serially to the non-inhibitory concentration of test compound; the residual viral infectivity was determined by viral plaque assay (FIG. 2).

[6] = Cell viability (MTS) assay, MA104 cells; format: cell-based; details: African green monkey, conditions of the HRoV assay
Experimental: Cell viability was measured using the MITS [3-(4,5-dimethylthiazol-2-yl)-5-(3 carboxy methoxy phenyl)-2-(4-sulfophenyl)-2H-tetrazolium] assay. Cell cultures were seeded in 96-well plates and were incubated with different concentrations of compounds of the invention in triplicate under the same experimental conditions described for the antiviral assays. Cell viability was determined using the CellTiter 96 Proliferation Assay Kit (Promega, Madison, WI, USA) according to the manufacturer's instructions. Absorbances were measured using a Microplate Reader (Model 680, BIORAD) at 490 nm. The effect on cell viability at different concentrations of the compound was expressed as a percentage, by comparing absorbances of treated cells with those of cells incubated with culture medium and equal volumes of vehicle. The 50% cytotoxic concentrations (CC50) and 95% confidence intervals (CIs) were determined using Prism software (Graph-Pad Software, San Diego, CA).

[7] = in vitro; details: dog
[8] = tested on: HSV-1; assay: HSV-1 plaque reduction assay on Vero cells; format: cell-based, Herpes 1 virus (HSV-1); details: Human alphaherpesvirus 1, Vero
[9] = tested on: HSV-2; assay: Post treatment assay, HSV-2 infected Vero cells; format: cell-based, Herpes 2 virus (HSV-2); details: Human alphaherpesvirus 2, Vero, read-out: antiviral activity value when added post-infection
Experimental: Supernatants and cells were harvested and cell free virus infectivity titers were determined in duplicate by plaque assay in Vero cell monolayers. Percent inhibition was determined by comparing the titer measured in the presence of the compounds to that measured in untreated wells.

[10] = tested on: HSV-2 Acy R; assay: microbe, parasite or virus in culture; format: cell-based, HSV-2 acyclovir resistant; details: Human alphaherpesvirus 2, Vero
[11] = tested on: DENV-2; assay: DENV plaque reduction assay on Huh-7 cells; format: cell-based, Dengue virus
Experimental: The effect of compounds on DENV infection was evaluated by plaque reduction assay. Huh-7 cells were pre-plated 24 h in advance in 24-well plates at a density of 10^5 cells. Concentrations of compounds ranging from 50 μM to 0.0001 μM in DMSO were mixed with DENV-2 (MOI 0.01 pfu/cell) and incubated for 1 hour at 37° C. The mixtures were subsequently added to the cells, which were then incubated at 37° C. for 2 h. The virus inoculum was then removed and the cells washed and overlaid with a medium containing 1.2% methylcellulose (Sigma). After further incubation at 37° C. for 72 h cells were fixed and stained with 0.1% crystal violet in 20% ethanol and viral plaques counted. The effective concentration producing 50% reduction in plaque formation (EC50) were determined using Prism software by comparing drug-treated wells with wells treated with medium and DMSO. The selectivity index (SI) was calculated by dividing the CC50 by the EC50 value.

[12] = tested on: RSV; assay: RSV inhibition assay on Hep-2 cells; format: cell-based, RSV strain A2; details: human respiratory syncytial virus
Experimental: as §1, with “Hep-2” for “HELF”, “RSV” for “HCMV”, “medium. 72 hours later” for “medium supplemented with 3% FCS and 1 mM sodium pyruvate. After five days incubation,”, “fixed and subjected to specific immunostaining using” for “observed under”, “RSV monoclonal antibody (Ab35958; Abeam, Cambridge, United Kingdom) in order to visualize syncytia.” for “inverted Zeiss LSM510 fluorescence microscope (Zeiss, Oberkochen, Germany) and the”, “numbers of syncytia” for “GFP positive cells”

Compound: O=C1NC(=S)N(CCc2ccccc2)C(=O)/C1=C\c1ccc(-c2ccc(C(=O)O)c(O)c2)[nH]1 [Compound 15b, (Z)-4-(5-((4,6-dioxo-1-phenethyl-2-thioxotetrahydropyrimidin-5(2H)-ylidene)methyl)-1H-pyrrol-2-yl)-2-hydroxybenzoic Acid]
- SI selectivity index ([1]; HSV-2, CC50 divided by EC50): >3452
- EC90 ([1]; Human alphaherpesvirus 2, Vero, HSV-2 infected cells, 90% effective concentration): 1190 nM
- EC50 ([1]; Human alphaherpesvirus 2, Vero, HSV-2 infected cells, compound mixed with virus 1 hour at 37° C.): 86.9 nM
- EC50 [2]: 118 nM
- EC90 [2]: 772 nM
- CC50 ([3]; CC50, conditions of the HSV-1 assay): > 300000 nM
- CC50 ([3]; CC50, conditions of the HSV-2 Acy R assay): > 300000 nM
- CC50 ([3]; CC50, conditions of the HSV-2 assay (Table 2)): > 300000 nM
- CC50 ([3]; CC50, conditions of the ZIKAV assay (Table 3)): > 111000 nM
- EC50 [4]: 7890 nM
- residual viral infectivity after virucidal incubation [5]: never regained
- CC50 [6]: > 300000 nM
- CC50 [7]: > 300000 nM
- EC50 [8]: 454 nM
- EC90 [8]: 3720 nM
- EC50 [9]: 775 nM
- EC50 [10]: 83.4 nM
- EC90 [10]: 420 nM
- SI selectivity index ([11]; DENV-2, CC50 divided by EC50): 5.6
- EC50 ([11]; Dengue virus, DENV2, Huh-7, DENV-2 infected cells): 1400 nM
- EC50 [12]: 315 nM
- EC90 [12]: 1510 nM

From US11814366B2, “Antiviral compounds and use thereof” (UNIVERSITA DEGLI STUDI DI SIENA, priority 2018, dated 2023)
